In ChEMBL document CHEMBL1155996, “Improving potency and selectivity of a new class of non-Zn-chelating MMP-13 inhibitors” (Bioorg Med Chem Lett, 2009):
Values after ≈ are worked out from the molar mass of the structure shown.

Assays:
[1] = Solubility of compound at pH 4.5 by high throughput screening; type: physicochemical; conditions: buffer
[2] = Solubility of compound at pH 7.4 by high throughput screening; type: physicochemical; conditions: buffer
Collagenase 3 = Collagenase 3 (Homo sapiens, UniProt P45452); test: Inhibition of human MMP13 by FRET assay

Compound	solubility [1] [µg/mL]	solubility [2] [µg/mL]	IC50 (Collagenase 3) [µM]
CNC(=O)[C@@H](NC(=O)c1ccc(-c2ccc(NS(C)(=O)=O)cc2)o1)C1CCCCC1	53 (≈ 122 µM)	61 (≈ 141 µM)	–
CNC(=O)[C@@H](NC(=O)c1ccc(-c2ccc(Cl)cc2)o1)C1CCCCC1	1.5 (≈ 4 µM)	1.9 (≈ 5.07 µM)	–
CNC(=O)[C@@H](NC(=O)c1ccc(-c2ccc(S(=O)(=O)NC)cc2)o1)C1CCCCC1	50 (≈ 115 µM)	52 (≈ 120 µM)	–
CNC(=O)c1ccc(-c2ccc(C(=O)N[C@H](C(=O)NC)C3CCCCC3)o2)cc1	16 (≈ 40.3 µM)	17 (≈ 42.8 µM)	6
CNC(=O)[C@@H](NC(=O)c1ccc(-c2ccc(OC)cc2)o1)C1CCCCC1	1.4 (≈ 3.78 µM)	1.6 (≈ 4.32 µM)	–
CNC(=O)[C@@H](NC(=O)c1ccc(-c2ccc(Oc3ccccc3)cc2)o1)C1CCCCC1	–	–	> 50
CNC(=O)[C@@H](NC(=O)c1ccc(-c2ccc(Cl)cn2)o1)C1CCCCC1	35 (≈ 93.1 µM)	37 (≈ 98.4 µM)	–
CNC(=O)[C@@H](NC(=O)c1ccc(-c2ccc(NC(C)=O)cc2)o1)C1CCCCC1	15 (≈ 37.7 µM)	17 (≈ 42.8 µM)	1.55

The remaining lines, values ahead:

solubility [1] [µg/mL]	solubility [2] [µg/mL]	IC50 (Collagenase 3) [µM]	Compound
< 0.1	0.1 (≈ 0.205 µM)	–	CNC(=O)[C@@H](NC(=O)c1ccc(-c2ccc(OCc3cc4ccccc4o3)cn2)o1)C1CCCCC1
33 (≈ 85.6 µM)	> 49	–	CCOc1ccc(-c2ccc(C(=O)N[C@H](C(=O)NC)C3CCCCC3)o2)nc1
25 (≈ 55.4 µM)	31 (≈ 68.7 µM)	–	CNC(=O)[C@@H](NC(=O)c1ccc(-c2ccc(OCc3cc(C)n[nH]3)cn2)o1)C1CCCCC1
7.4 (≈ 16 µM)	3.4 (≈ 7.35 µM)	–	CNC(=O)[C@@H](NC(=O)c1ccc(-c2ccc(OCc3cccc(C)n3)cn2)o1)C1CCCCC1
> 57	> 57	–	CNC(=O)[C@@H](NC(=O)c1ccc(-c2ccc(OCc3cc(C)n(C)n3)cn2)o1)C1CCCCC1
39 (≈ 89.1 µM)	43 (≈ 98.3 µM)	–	CNC(=O)[C@@H](NC(=O)c1ccc(-c2ccc(OCc3ccn[nH]3)cn2)o1)C1CCCCC1
